According to patent US11524966B1 (Valo Early Discovery, Inc., priority 2017, dated 2022):

Biological target: T1, USP25 (USP25-His6, Boston Biochem E-546) (Homo sapiens, UniProt Q9UHP3)
T1 construct: His6; purchased Boston Biochem E-546
T1 sequence (Q9UHP3 1-1055): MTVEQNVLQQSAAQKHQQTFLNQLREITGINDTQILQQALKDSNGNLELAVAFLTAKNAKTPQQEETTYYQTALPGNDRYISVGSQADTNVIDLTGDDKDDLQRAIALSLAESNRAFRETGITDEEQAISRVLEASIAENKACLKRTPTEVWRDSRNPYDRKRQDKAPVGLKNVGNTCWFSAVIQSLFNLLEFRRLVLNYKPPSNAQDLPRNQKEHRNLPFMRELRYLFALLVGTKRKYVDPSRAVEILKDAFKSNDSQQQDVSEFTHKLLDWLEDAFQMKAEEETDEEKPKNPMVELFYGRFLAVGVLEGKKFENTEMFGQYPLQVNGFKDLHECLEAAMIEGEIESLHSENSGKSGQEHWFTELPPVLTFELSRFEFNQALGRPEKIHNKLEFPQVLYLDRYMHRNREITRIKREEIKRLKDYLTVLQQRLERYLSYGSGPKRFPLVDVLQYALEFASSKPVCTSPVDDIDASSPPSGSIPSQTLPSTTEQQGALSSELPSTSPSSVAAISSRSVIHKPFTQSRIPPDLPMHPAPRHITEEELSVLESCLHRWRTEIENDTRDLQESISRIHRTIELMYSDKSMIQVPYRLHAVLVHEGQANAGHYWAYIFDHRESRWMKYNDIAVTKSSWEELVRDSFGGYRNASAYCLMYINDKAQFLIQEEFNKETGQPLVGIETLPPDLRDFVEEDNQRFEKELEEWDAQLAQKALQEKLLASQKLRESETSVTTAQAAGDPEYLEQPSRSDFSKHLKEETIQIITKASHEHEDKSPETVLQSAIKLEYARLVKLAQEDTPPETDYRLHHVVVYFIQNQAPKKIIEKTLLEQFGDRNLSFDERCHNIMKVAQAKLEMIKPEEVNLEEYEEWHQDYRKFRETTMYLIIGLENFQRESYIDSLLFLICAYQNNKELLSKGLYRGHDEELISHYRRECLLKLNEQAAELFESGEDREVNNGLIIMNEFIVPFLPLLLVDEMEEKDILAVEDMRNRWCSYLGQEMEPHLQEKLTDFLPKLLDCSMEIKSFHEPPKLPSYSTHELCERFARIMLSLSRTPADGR
Assay: Ubiquitin-Rhodamine 110 Assay for USP25 Activity, Example A-2
Assay type: biochemical
Details: Ubiquitin-Rhodamine 110 assay, Example A-2; read-out: USP25 A-2 IC50 range
Outline: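 Inhibition is quantified as IC50 by 4-parameter fit of fluorescence (485/535 nm) from Ub-Rh110 hydrolysis. Enzyme USP25-His6 at 75 pM with 30 min compound preincubation, then 25 nM substrate for 45 min at room temperature in pH 8.0 Tris buffer containing BME.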

SMILES: CO[C@H]1CN(c2cc3c(cc2C#N)C[C@@H](NC(=O)c2sc4nc(C)ccc4c2N)CC3)C[C@@H]1N [Example 201, 3-amino-N-[(2S)-6-[(3S,4S)-3-amino-4-methoxypyrrolidin-1-yl]-7-cyano-1,2,3,4-tetrahydronaphthalen-2-yl]-6-methylthieno[2,3-b]pyridine-2-carboxamide]
- IC50: 200 to 2000 nM

SMILES: Cc1ccc2c(N)c(C(=O)N[C@H]3COc4cc(N5C[C@H](OC(C)C)[C@@H](N)C5)ccc4C3)sc2n1 [Example 202, 3-amino-N-[(3R)-7-[(3S,4S)-3-amino-4-(propan-2-yloxy)pyrrolidin-1-yl]-3,4-dihydro-2H-1-benzopyran-3-yl]6-methylthieno[2,3-b]pyridine-2-carboxamide]
- IC50: 200 to 2000 nM

SMILES: CO[C@H]1CN(c2ccc3c(n2)CC[C@H](NC(=O)c2sc4nc(C)c(F)cc4c2N)C3)C[C@@H]1N [Example 203, 3-amino-N-[(6S)-2-[(3S,4S)-3-amino-4-methoxypyrrolidin-1-yl]-5,6,7,8-tetrahydroquinolin-6-yl}-5-fluoro-6-methylthieno[2,3-b]pyridine-2-carboxamide]
- IC50: > 2000 nM

SMILES: Cc1nc2sc(C(=O)N[C@H]3CCc4nc(N5CCNCC5)ccc4C3)c(N)c2cc1F [Example 204, 3-amino-5-fluoro-6-methyl-N-[(6S)-2-(piperazin-1-yl)-5,6,7,8-tetrahydroquinolin-6-yl]thieno[2,3-b]pyridine-2-carboxamide]
- IC50: 200 to 2000 nM

SMILES: Cc1ccc2c(N)c(C(=O)N[C@H]3Cc4ccc(N5CCNCC5)nc4[C@@H](C)C3)sc2n1 [Example 206, 3-amino-6-methyl-N-[(6R,8S)-8-methyl-2-(piperazin-1-yl)-5,6,7,8-tetrahydroquinolin-6-yl]thieno[2,3-b]pyridine-2-carboxamide]
- IC50: > 2000 nM

SMILES: Cc1ccc2c(N)c(C(=O)N[C@@H]3Cc4ccc(N5CCNCC5)nc4[C@H](C)C3)sc2n1 [Example 207, 3-amino-6-methyl-N-[(6S,8R)-8-methyl-2-(piperazin-1-yl)-5,6,7,8-tetrahydroquinolin-6-yl]thieno[2,3-b]pyridine-2-carboxamide]
- IC50: > 2000 nM

SMILES: Cc1ccc2c(N)c(C(=O)N[C@H]3Cc4ccc(N5CCNCC5)nc4[C@H](C)C3)sc2n1 [Example 208, 3-amino-6-methyl-N-[(6R,8R)-8-methyl-2-(piperazin-1-yl)-5,6,7,8-tetrahydroquinolin-6-yl]thieno[2,3-b]pyridine-2-carboxamide]
- IC50: 200 to 2000 nM

SMILES: Cc1ccc2c(N)c(C(=O)N[C@H]3COc4cc(N5C6CNCC5COC6)ccc4C3)sc2n1 [Example 209, 3-amino-6-methyl-N-[(3R)-7-{3-oxa-7,9-diazabicyclo[3.3.1]nonan-9-yl}-3,4-dihydro-2H-1-benzopyran-3-yl]thieno[2,3-b]pyridine-2-carboxamide]
- IC50: 1 to 50 nM

SMILES: CO[C@@]1(C)CN(c2ccc3c(n2)CC[C@H](NC(=O)c2sc4nc(C)ccc4c2N)C3)C[C@@H]1N [Example 210, 3-amino-N-[(6S)-2-[(3S,4S)-4-amino-3-methoxy-3-methylpyrrolidin-1-yl]-5,6,7,8-tetrahydroquinolin-6-yl]-6-methylthieno[2,3-b]pyridine-2-carboxamide]
- IC50: > 2000 nM

SMILES: CO[C@]1(C)CN(c2ccc3c(n2)CC[C@H](NC(=O)c2sc4nc(C)ccc4c2N)C3)C[C@H]1N [Example 211, 3-amino-N-[(6S)-2-[(3R,4R)-4-amino-3-methoxy-3-methylpyrrolidin-1-yl]-5,6,7,8-tetrahydroquinolin-6-yl]-6-methylthieno[2,3-b]pyridine-2-carboxamide]
- IC50: > 2000 nM

SMILES: CN[C@H]1CN(c2ccc3c(c2)OC[C@H](NC(=O)c2sc4nc(C)ccc4c2N)C3)C[C@@H]1OC [Example 212, 3-amino-N-[(3R)-7-[(3S,4S)-3-methoxy-4-(methylamino)pyrrolidin-1-yl]-3,4-dihydro-2H-1-benzopyran-3-yl]-6-methylthieno[2,3-b]pyridine-2-carboxamide]
- IC50: 200 to 2000 nM

SMILES: CO[C@H]1CN(c2ccc3c(c2)OC[C@H](NC(=O)c2sc4nc(C)ccc4c2N)C3)C[C@@H]1NC(C)=O [Example 213, 3-amino-N-[(3R)-7-[(3S,4S)-3-acetamido-4-methoxypyrrolidin-1-yl]-3,4-dihydro-2H-1-benzopyran-3-yl]-6-methylthieno[2,3-b]pyridine-2-carboxamide]
- IC50: 200 to 2000 nM

SMILES: Cc1ccc2c(N)c(C(=O)N[C@H]3COc4cc(N5C[C@H](N)C(C)(C)C5)ccc4C3)sc2n1 [Example 214, 3-amino-N-[(3R)-7-[(4R)-4-amino-3,3-dimethylpyrrolidin-1-yl]-3,4-dihydro-2H-1-benzopyran-3-yl]-6-methylthieno[2,3-b]pyridine-2-carboxamide]
- IC50: 50 to 200 nM

SMILES: Cc1ccc2c(N)c(C(=O)N[C@H]3COc4cc(N5C[C@@H](N)C(C)(C)C5)ccc4C3)sc2n1 [Example 215, 3-amino-N-[(3R)-7-[(4S)-4-amino-3,3-dimethylpyrrolidin-1-yl]-3,4-dihydro-2H-1-benzopyran-3-yl]-6-methylthieno[2,3-b]pyridine-2-carboxamide]
- IC50: 50 to 200 nM

SMILES: Cc1ccc2c(N)c(C(=O)N[C@H]3CCc4nc(N5CC[C@H]6CNC[C@H]65)ccc4C3)sc2n1 [Example 216, N-[(6S)-2-[(3aS,6aS)-octahydropyrrolo[2,3-c]pyrrol-1-yl}-5,6,7,8-tetrahydroquinolin-6-yl]-3-amino-6-methylthieno[2,3-b]pyridine-2-carboxamide]
- IC50: 200 to 2000 nM

SMILES: Cc1ccc2c(N)c(C(=O)N[C@H]3CCc4nc(N5CC[C@@H]6CNC[C@@H]65)ccc4C3)sc2n1 [Example 217, N-[(6S)-2-[(3aR,6aR)-octahydropyrrolo[2,3-c]pyrrol-1-yl]-5,6,7,8-tetrahydroquinolin-6-yl]-3-amino-6-methylthieno[2,3-b]pyridine-2-carboxamide]
- IC50: 50 to 200 nM

SMILES: Cc1cc(C)c2c(N)c(C(=O)N[C@H]3CCc4nc(N5CC[C@H]6CNC[C@H]65)ccc4C3)sc2n1 [Example 218, N-[(6S)-2-[(3aS 6aS)-octahydropyrrolo[2,3-c]pyrrol-1-yl]-5,6,7,8-tetrahydroquinolin-6-yl]-3-amino-4,6-dimethylthieno[2,3-b]pyridine-2-carboxamide]
- IC50: 200 to 2000 nM

SMILES: Cc1cc(C)c2c(N)c(C(=O)N[C@H]3CCc4nc(N5CC[C@@H]6CNC[C@@H]65)ccc4C3)sc2n1 [Example 219, N-[(6S)-2-[(3aR,6aR)-octahydropyrrolo[2,3-c]pyrrol-1-yl]-5,6,7,8-tetrahydroquinolin-6-yl]-3-amino-4,6-dimethylthieno[2,3-b]pyridine-2-carboxamide]
- IC50: 50 to 200 nM

SMILES: Cc1ccc2c(N)c(C(=O)N[C@H]3COc4cc(N5CC[C@H]6CNC[C@H]65)cc(F)c4C3)sc2n1 [Example 220, N-[(3R)-7-[(3aS,6aS)-octahydropyrrolo[2,3-c]pyrrol-1-yl]-5-fluoro-3,4-dihydro-2H-1-benzopyran-3-yl]-3-amino-6-methylthieno[2,3-b]pyridine-2-carboxamide]
- IC50: 50 to 200 nM

SMILES: Cc1ccc2c(N)c(C(=O)N[C@H]3COc4cc(N5CC[C@@H]6CNC[C@@H]65)cc(F)c4C3)sc2n1 [Example 221, N-[(3R)-7-[(3aR,6aR)-octahydropyrrolo[2,3-c]pyrrol-1-yl]-5-fluoro-3,4-dihydro-2H-1-benzopyran-3-yl]-3-amino-6-methylthieno[2,3-b]pyridine-2-carboxamide]
- IC50: 200 to 2000 nM

SMILES: Cc1ccc2c(N)c(C(=O)N[C@H]3COc4cc(N5CC[C@H]6CCNC[C@H]65)ccc4C3)sc2n1 [Example 224, N-[(3R)-7-[(3aR,7aS)-octahydro-1H-pyrrolo[2,3-c]pyridin-1-yl]-3,4-dihydro-2H-1-benzopyran-3-yl]-3-amino-6-methylthieno[2,3-b]pyridine-2-carboxamide]
- IC50: 50 to 200 nM

SMILES: Cc1ccc2c(N)c(C(=O)N[C@H]3COc4cc(N5CC[C@@H]6CCNC[C@@H]65)ccc4C3)sc2n1 [Example 225]
- IC50: 1 to 50 nM

SMILES: Cc1cc(C)c2c(N)c(C(=O)N[C@H]3COc4cc(N5CC[C@H]6CNC[C@H]65)ccc4C3)sc2n1 [Example 226, N-[(3R)-7-[(3aS,6aS)-octahydropyrrolo[2,3-c]pyrrol-1-yl]-3,4-dihydro-2H-1-benzopyran-3-yl]-3-amino-4,6-dimethylthieno[2,3-b]pyridine-2-carboxamide]
- IC50: 50 to 200 nM
